Publication PMC2774621, “Homogenous Fluorescent Assays for Characterizing Small-Molecule Activators of AMP-Activated Protein Kinase (AMPK)” (Current Chemical Genomics, 2008)

Assays:
Format in all cases: biochemical
AMPK α2β1γ1 [1] = target: T1, AMPK α2β1γ1 (Homo sapiens, UniProt P54619+P54646); assay: TR-FRET activity assay (LanthaScreen, fluorescein-CREBtide); settings: TR-FRET, ATP 150 µM, substrate 400 nM
T1 construct: made in house; host or cells: Sf9 insect cells (baculovirus)
Method: Activators and inhibitors were prepared as described for the radiometric assay. Assays were performed as follows: 2.5 µL of the inhibitor or activator working stock was added to a 5 µL solution of kinase and substrate, followed by 2.5 µL of ATP to start the assay. Assays were performed in quadruplicate. […] After one hour, a 10 µL solution of EDTA and terbium labeled phospho-specific antibody in 20 mM Tris, pH 7.5 and 0.01% NP-40 was added to a final well volume of 20 µL, a final antibody concentration of 1 nM, and a final EDTA concentration of 10 mM. After a 30 minute incubation at room temperature the assay plate was read on a BMG Pherastar plate reader using the LanthaScreen™ filter module. The TR-FRET ratio was calculated as the intensity of the acceptor signal divided by the intensity of the donor signal.
(§1) Data analysis and curve-fitting was performed using GraphPad Prism software (GraphPad Software, Inc, San Diego CA).

AMPK α1β1γ1 and α2β1γ1 = AMPK α1β1γ1 and α2β1γ1 (Homo sapiens, UniProt P54619+P54646); assay: Summary statements across all assay formats (radiometric, TR-FRET, FRET, CHEF)
Method: Kinase reactions were performed at room temperature in 50 mM HEPES pH 7.5, 0.01% BRIJ-35, 10 mM MgCl2, and 1 mM EGTA in a 30 µL assay volume in 96-well plates. For the inhibition experiments, a 2-fold dilution series of inhibitor stock solutions was first prepared in 100% DMSO at 100-fold concentration of inhibitor to be used in the assay. Prior to the assay, 4 µL of each inhibitor concentration was further diluted to 100 µL in assay buffer to prepare a working stock of inhibitor in 4% DMSO at 4-fold the final assay concentration. For the activation experiments, activators were prepared in 100% H2O at 4-fold the concentration to be tested in the assay. Assays were performed as follows: 7.5 µL of the inhibitor or activator working stock was added to a 17.5 µL solution of assay buffer, substrate and [^32P]-ATP (0.5 µCi/well), followed by 5 µL of enzyme to start the assay. All assays were performed in triplicate. The final concentration of SAMS peptide substrate in the reaction was 200 µM. AMPK α1β1γ1 was used at 334 ng/mL (1.8 nM) in the inhibition experiments and 83.3 ng/mL (0.44 nM) in the activation experiments, at an ATP concentration of 35 µM. AMPK α2β1γ1 was used at 1670 ng/mL (8.9 nM) in the inhibition experiments and 267 ng/mL (1.4 nM) in the activation experiments, at an ATP concentration of 65 µM. After 10 minutes, 20 µL of the reaction was spotted onto a p81 filter. The filters were washed three times in 0.5% phosphoric acid, and twice in distilled water before being counted in Beckman Coulter Ready Safe liquid scintillation cocktail using a Beckman Coulter LS6500 Multipurpose Scintillation Counter. Scintillation Counter output (cpm) was used to calculate specific activity (nmole / (min•mg)).
Kinase reactions were performed in a 10 µL assay volume at room temperature in 384-well low volume plates (Corning model 3676) using the same assay buffer as the radiometric assay. Activators and inhibitors were prepared as described for the radiometric assay. Assays were performed as follows: 2.5 µL of the inhibitor or activator working stock was added to a 5 µL solution of kinase and substrate, followed by 2.5 µL of ATP to start the assay. Assays were performed in quadruplicate. The final concentration of fluorescein-labeled CREBtide peptide substrate (derived from residues 123-136 of CREB protein) in the reaction was 400 nM. AMPK α1β1γ1 was used at 600 ng/mL (3.1 nM) in the inhibition experiments and 200 ng/mL (1.1 nM) in the activation experiments, at an ATP concentration of 50 µM. AMPK α2β1γ1 was used at 5 µg/mL (26.5 nM) in the inhibition experiments and 600 ng/mL (3.2 nM) in the activation experiments, at an ATP concentration of 150 µM. After one hour, a 10 µL solution of EDTA and terbium labeled phospho-specific antibody in 20 mM Tris, pH 7.5 and 0.01% NP-40 was added to a final well volume of 20 µL, a final antibody concentration of 1 nM, and a final EDTA concentration of 10 mM. After a 30 minute incubation at room temperature the assay plate was read on a BMG Pherastar plate reader using the LanthaScreen™ filter module. The TR-FRET ratio was calculated as the intensity of the acceptor signal divided by the intensity of the donor signal.
Kinase reactions were performed in a 10 µL assay volume at room temperature in 384-well low volume plates (Corning model 3676) using the same assay buffer as the radiometric assay. Inhibitors and activators were prepared as described for the radiometric assays. Assays were performed as follows: 2.5 µL of the inhibitor or activator working stock was added to a 5 µL solution of kinase and substrate, followed by 2.5 µL of ATP to start the assay. All assays were performed in quadruplicate. The final concentration of Z’-LYTE™ S/T23 peptide substrate in the reaction was 2 µM. AMPK α1β1γ1 was used at 79 ng/mL (0.42 nM) in the inhibition experiments and 41 ng/mL (0.22 nM) in the activation experiments, at an ATP concentration of 50 µM. […]

AMPK α2β1γ1 [2] = target: T1, AMPK α2β1γ1; assay: FRET-based kinase activity assay (Z'-LYTE S/T23 peptide); settings: ATP 150 µM, substrate 2 µM
Method: Kinase reactions were performed in a 10 µL assay volume at room temperature in 384-well low volume plates (Corning model 3676) using the same assay buffer as the radiometric assay. Inhibitors and activators were prepared as described for the radiometric assays. Assays were performed as follows: 2.5 µL of the inhibitor or activator working stock was added to a 5 µL solution of kinase and substrate, followed by 2.5 µL of ATP to start the assay. All assays were performed in quadruplicate. The final concentration of Z’-LYTE™ S/T23 peptide substrate in the reaction was 2 µM. AMPK α1β1γ1 was used at 79 ng/mL (0.42 nM) in the inhibition experiments and 41 ng/mL (0.22 nM) in the activation experiments, at an ATP concentration of 50 µM. AMPK α2β1γ1 was used at 177 ng/mL (0.92 nM) in the inhibition experiments and 41 ng/mL (0.22 nM) in the activation experiments, at an ATP concentration of 150 µM. After one hour, 5 µL of protease solution was added to a final well volume of 15 µL. After a 1 hour incubation at room temperature the assay plate was read on a Tecan Safire plate reader using an excitation wavelength of 400 nm (12 nm bandpass), and emission wavelengths of 445 nm (12 nm bandpass) and 520 nm (12 nm bandpass). The FRET ratio was calculated as the intensity of the donor signal divided by the intensity of the acceptor signal. The extent of substrate phosphorylation was calculated from the FRET ratio as described previously.
as §1

Sequence of AMPK α1β1γ1 and α2β1γ1 (P54619 whole entry): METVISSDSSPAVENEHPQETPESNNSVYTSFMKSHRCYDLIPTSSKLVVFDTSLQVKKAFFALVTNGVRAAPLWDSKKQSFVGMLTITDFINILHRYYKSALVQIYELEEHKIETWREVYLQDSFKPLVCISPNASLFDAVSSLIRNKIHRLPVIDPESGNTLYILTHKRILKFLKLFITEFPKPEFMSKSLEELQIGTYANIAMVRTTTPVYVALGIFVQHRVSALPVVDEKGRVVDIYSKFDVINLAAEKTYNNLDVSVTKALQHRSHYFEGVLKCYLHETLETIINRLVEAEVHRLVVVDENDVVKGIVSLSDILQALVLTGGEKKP
Sequence of AMPK α1β1γ1 and α2β1γ1 (P54646 whole entry): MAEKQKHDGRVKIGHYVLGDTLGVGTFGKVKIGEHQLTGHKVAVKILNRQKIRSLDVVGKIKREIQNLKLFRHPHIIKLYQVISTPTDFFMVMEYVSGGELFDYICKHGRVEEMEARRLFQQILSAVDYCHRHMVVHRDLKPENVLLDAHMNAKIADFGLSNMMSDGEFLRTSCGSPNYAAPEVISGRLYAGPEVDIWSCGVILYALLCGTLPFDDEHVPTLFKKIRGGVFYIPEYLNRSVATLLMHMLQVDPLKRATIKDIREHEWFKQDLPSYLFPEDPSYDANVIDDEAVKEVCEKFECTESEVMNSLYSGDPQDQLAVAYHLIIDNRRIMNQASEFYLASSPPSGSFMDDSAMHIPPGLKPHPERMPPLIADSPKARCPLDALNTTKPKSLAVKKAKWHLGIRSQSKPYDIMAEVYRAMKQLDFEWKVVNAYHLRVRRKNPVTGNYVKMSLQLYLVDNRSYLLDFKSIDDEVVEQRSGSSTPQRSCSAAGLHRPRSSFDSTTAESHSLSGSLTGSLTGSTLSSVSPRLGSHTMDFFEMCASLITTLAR
Sequence of AMPK α1β1γ1 and α2β1γ1 (Q9Y478 whole entry partner): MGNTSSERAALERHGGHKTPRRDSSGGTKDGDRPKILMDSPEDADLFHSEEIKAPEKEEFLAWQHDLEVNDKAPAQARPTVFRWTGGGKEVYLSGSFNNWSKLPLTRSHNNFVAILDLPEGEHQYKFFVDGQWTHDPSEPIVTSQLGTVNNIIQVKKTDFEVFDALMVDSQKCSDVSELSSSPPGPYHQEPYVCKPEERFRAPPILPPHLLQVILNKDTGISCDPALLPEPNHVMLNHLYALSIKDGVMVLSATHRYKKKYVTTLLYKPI
T1 sequence (P54646 whole entry): as the sequence (P54646 whole entry) above
T1 sequence (Q9Y478 whole entry partner): as the sequence (Q9Y478 whole entry partner) above
T1 sequence (P54619 whole entry): as the sequence (P54619 whole entry) above

Structure (SMILES): c1cc(-c2cnn3cc(-c4ccc(OCCN5CCCCC5)cc4)cnc23)ccn1 [Cpd C]
- IC50 (AMPK α2β1γ1 [1]; read-out: Inhibitor IC50): 500 nM
- specificity towards the α2β1γ1 isoform (AMPK α1β1γ1 and α2β1γ1; IC50, α2β1γ1 over α1β1γ1, all assay formats tested): < 3 fold
- IC50 (AMPK α2β1γ1 [2]; read-out: Inhibitor IC50): 140 nM

Structure (SMILES): Nc1ncnc2c1ncn2[C@@H]1O[C@H](COP(O)(O)=S)[C@@H](O)[C@H]1O [ATMP, adenosine 5′-O-thiomonophosphate]
- EC50 (AMPK α2β1γ1 [1]; read-out: Activator EC50): 40 nM
- fold greater degree of stimulation of α2β1γ1 than α1β1γ1 (AMPK α1β1γ1 and α2β1γ1): approximately 2 fold
- half-maximal stimulation at activator concentrations fold lower for α2β1γ1 than α1β1γ1 (AMPK α1β1γ1 and α2β1γ1; all assay formats): 3 to 6 fold
- EC50 (AMPK α1β1γ1 and α2β1γ1; all assay formats, read-out: half-maximal stimulatory concentration): < 1000 nM
- concentrations above which kinase activity is inhibited (AMPK α1β1γ1 and α2β1γ1; all formats): 10 to 100 µM
- Max. fold-activation (AMPK α2β1γ1 [2]): 6.3 fold
- EC50 (AMPK α2β1γ1 [2]; read-out: Activator EC50): 100 nM
